Measurements reported in ChEMBL document CHEMBL1240477, “Discovery of novel CDK1 inhibitors by combining pharmacophore modeling, QSAR analysis and in silico screening followed by in vitro bioassay” (Eur J Med Chem, 2010).

target: Cyclin-dependent kinase 1 (Homo sapiens, UniProt P06493); assay: Inhibition of CDK1
Sequence (P06493 whole entry): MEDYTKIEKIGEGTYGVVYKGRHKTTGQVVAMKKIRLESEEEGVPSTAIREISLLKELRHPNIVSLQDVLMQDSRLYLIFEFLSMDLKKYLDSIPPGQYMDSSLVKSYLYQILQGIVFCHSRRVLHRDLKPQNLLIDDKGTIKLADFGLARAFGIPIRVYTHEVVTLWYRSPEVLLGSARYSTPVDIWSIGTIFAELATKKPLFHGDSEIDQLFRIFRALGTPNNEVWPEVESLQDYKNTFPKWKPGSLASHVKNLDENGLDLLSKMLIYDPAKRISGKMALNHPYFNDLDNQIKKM

SMILES	IC50 [nM]
OCCNC(=S)Nc1ccc(C(F)(F)F)cc1	1400
OCCSC(=S)Nc1ccc(Cl)c(Cl)c1	2500
O=C(NCCCO)c1cc(Cl)ccc1O	2530
OCCN(CCO)Cc1cc(Cl)c2cccnc2c1O	3230
CCN(CCO)CCCNc1ccnc2cc(Cl)ccc12	830
COC(=O)c1cc(NC(C)=O)ccc1S(=O)(=O)c1ccc(NC(C)=O)cc1C(=O)OC	910
Cc1cc2[nH]c(=S)n([C@@H]3O[C@H](CO)[C@@H](O)[C@H]3O)c2cc1C	2100
O=Cc1cc(CCCCCCc2ccc(O)c(C=O)c2)ccc1O	4900
C[C@H](N[C@@H](C)COc1ccccc1)[C@@H](O)c1ccc(O)cc1	2900
COc1cc(OC)nc(NC(=O)NS(=O)(=O)c2cc(NC=O)ccc2C(=O)N(C)C)n1 [FORAMSULFURON]	3600
O=c1c(O)c(-c2ccc(O)c(O)c2)oc2cc(O)cc(O)c12 [QUERCETIN]	450
